Reference: patent US20080058272A1, “Nonamer Peptides for Cancer Treatment” (priority 2006, published 2008)

Tested on: PBMC of melanoma patients
Test: Flow cytometry with HLA-A2/FAPα peptide multimers after in vitro stimulation
Format: cell-based, human
Description: The human HLA-A*0201-positive cell lines T2, a TAP-deficient T cell leukemia/B cell line hybrid and JY, a B-LCL were cultured in RPMI 1640 supplemented with 10% heat inactivated FCS. After informed consent peripheral blood lymphocytes (PBLs) were collected from HLA-A2-positive patients with advanced malignant melanoma. PBLs from HLA-A2-positive healthy individuals were used as controls. PBLs were isolated using Lymphoprep separation (Axis-Shield PoC AS, Oslo, Norway) according to the manufacturer's instructions and used directly or frozen in FCS with 10% DMSO. PBL were cultured in RPMI/10% human AB serum. Dendritic cells (DCs) were generated from PBMC by adherence on culture dishes at 37° C. for 60 minutes in RPMI enriched with 10% human AB serum. […]
After peptide-specific stimulation with FAPα peptides or with FAPα mRNA transfected DC, generated as described previously (Fassnacht et al. 2005) PBLs were stained with HLA-A2/FAPα peptide FITC-labeled multimers (a kind gift of Jorgen Scholler, Dako, Glostrup, Denmark) in PBS/0.1% BSA/FCS for 30 min in the dark, followed by staining with anti-CD8-PE (Dako, Glostrup, Denmark) for 30 min at 4° C. in the dark. Samples were analyzed on BD FACS Canto (Becton Dickinson, Heidelberg, Germany) using WinMDi or FCS Express V3.

“GLFKCGIAV (listed as Homo sapiens) [FAPα^639-647]” was tested, and the “detection of HLA-A2/FAPα^639-647 specific T cells” value (after in vitro stimulation with FAPα peptide-loaded dendritic cells) was “able to detect” and the “detection of HLA-A2/FAPα^639-647 specific T cells” value (after stimulation with DCs transfected with FAPα mRNA) was “can be detected”.
